Assay results from PMC12238723, “Phase I Clinical Trial of CVL218, a Novel PARP1/2 Inhibitor, in Patients with Advanced Solid Tumors” (MedComm, 2025).

Test system: patients with advanced solid tumors
Assay: Dose-limiting toxicity, MTD and recommended dose
Format: in vivo
Protocol: CVL218 was administered orally, and this dose‐escalation trial included nine dose levels: 100 mg QD (50 mg BID), 200 mg QD (100 mg BID), 400 mg QD (200 mg BID), 700 mg QD (350 mg BID), 1000 mg QD (500 mg BID), 1200 mg QD (600 mg BID), 1400 mg QD (700 mg BID), 1700 mg QD (850 mg BID), and 2000 mg QD (1000 mg BID). Patients enrolled in the study received a single oral dose on the first day, followed by continuous multiple dosing (twice a day taking 12 h apart) after 72 h, with the treatment cycle lasting 4 weeks. The period during which patients received a single dose is designated as cycle 0 (C0), lasting 72 h. After this period, patients begin multiple dosing, referred to as cycle 1 (C1). An initial accelerated titration design was employed for the three lowest dose groups, and the “3+3” design was applied starting with the 300 mg BID cohort.
The primary objectives were to assess safety and tolerability as well as to determine the MTD, DLT, and dose recommended for further study. DLT was defined as any of the following events occurring during cycle 0 (including 72 h wash‐out period after a single dose) and cycle 1 per Common Terminology Criteria for Adverse Events (CTCAE) version 5.0: grade 4 anemia; grade 4 neutropenia; grade 3 neutropenia with fever ≥38.5°C; grade 4 thrombocytopenia; grade 3 thrombocytopenia associated with bleeding; grade ≥2 neurotoxicity; any other grade ≥3 nonhematological toxicities (excluding alopecia). The secondary objectives were to assess the PK and preliminary efficacy of CVL218.

In the case of CNCc1ccc(-c2cc3cc(F)cc(C(N)=O)c3o2)cc1.Cl [CVL218], the “Any DLT” value (50 mg BID (N = 1)) is reported as 0 n (%), the “DLT: Increased creatinine” value (50 mg BID (N = 1)) is reported as 0 n (%) and the “DLT: Renal failure” value (50 mg BID (N = 1)) is reported as 0 n (%). The “Any DLT” value (100 mg BID (N = 1)) was 0 n (%), the “DLT: Increased creatinine” value (100 mg BID (N = 1)) was 0 n (%) and the “DLT: Renal failure” value (100 mg BID (N = 1)) was 0 n (%). The “Any DLT” value (200 mg BID (N = 1)) was 0 n (%), the “DLT: Increased creatinine” value (200 mg BID (N = 1)) was 0 n (%) and the “DLT: Renal failure” value (200 mg BID (N = 1)) was 0 n (%). For the same compound, the “Any DLT” value (350 mg BID (N = 4)) was 0 n (%), the “DLT: Increased creatinine” value (350 mg BID (N = 4)) was 0 n (%) and the “DLT: Renal failure” value (350 mg BID (N = 4)) was 0 n (%). The “Any DLT” value (500 mg BID (N = 4)) was 0 n (%), the “DLT: Increased creatinine” value (500 mg BID (N = 4)) was 0 n (%) and the “DLT: Renal failure” value (500 mg BID (N = 4)) was 0 n (%). The “Any DLT” value (600mg BID (N=4)) was 0 n (%), the “DLT: Increased creatinine” value (600mg BID (N=4)) was 0 n (%) and the “DLT: Renal failure” value (600mg BID (N=4)) was 0 n (%). The “Any DLT” value (700 mg BID (N = 6)) was 1 (16.7) n (%), the “DLT: Increased creatinine” value (700 mg BID (N = 6)) was 0 n (%) and the “DLT: Renal failure” value (700 mg BID (N = 6)) was 1 (16.7) n (%). For the same compound, the “Any DLT” value (850mg BID (N=5)) was 2 (40.0) n (%), the “DLT: Increased creatinine” value (850mg BID (N=5)) was 2 (40.0) n (%) and the “DLT: Renal failure” value (850mg BID (N=5)) was 0 n (%). The “Any DLT” value (Overall (N=26)) was 3 (11.5) n (%), the “DLT: Increased creatinine” value (Overall (N=26)) was 2 (7.7) n (%) and the “DLT: Renal failure” value (Overall (N=26)) was 1 (3.8) n (%). For the same compound, the “recommended dose for further study” value (oral) was 700 mg BID and the “maximum tolerated dose (MTD)” value (oral, patients with advanced solid tumors) was 700 mg BID.
